The results in this text go back to US8906909B2 (Curis, Inc., priority 2009, dated 2014).

By IC50 is commonly meant the concentration needed to halve the response being measured. Broadly, the melting point is the temperature, or range, at which the solid turns liquid.

Series [1] has as its system HDACs (HeLa cell nuclear extracts). As to the kind of experiment: HDAC enzymatic activity, Biomol Color de Lys system. The format is biochemical. A digest of the protocol: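 IC50 from sigmoidal dose-response fits of fluorescence (Ex 350–380, Em 440–460 nm). Compounds in DMSO dilution series incubated 1 h at 25 °C with HeLa nuclear extract HDACs and colorimetric substrate, pH 8.0 Tris/Cl buffer with NaCl, KCl, MgCl2, before developer termination.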

The test system of the next series is HCT-118 cells. As to the kind of experiment: Cell proliferation assay Method A (ATPlite), HCT-118. The format is cell-based. The settings on record: 72 hours, read-out: antiproliferative activity IC50, HCT-118. The procedure:
(§1) Cancer cell lines were plated at 5,000 to 10,000 per well in 96-well flat bottomed plates with various concentration of compounds. The cells were incubated with compounds for 72 hours in the presence of 0.5% of fetal bovine serum. Growth inhibition was accessed by adenosine triphosphate (ATP) content assay using Perkin Elmer ATPlite kit. ATPlite is an ATP monitoring system based on firefly luciferase. Briefly, 25 μl of mammalian cell lysis solution was added to 50 μl of phenol red-free culture medium per well to lyse the cells and stabilize the ATP. 25 μl of substrate solution was then added to the well and subsequently the luminescence was measured.
Background: In ATP-based viability assays light output follows the ATP content of the culture.

The next series has as its system BT-474 cells. As to the kind of experiment: Cell proliferation assay Method A (ATPlite), BT-474. Type of series: cell-based. The settings on record: Homo sapiens, 72 hours, read-out: antiproliferative activity IC50, BT-474. The method, then:
as §1

Series [2] has as its system Sk-Mel-28 cells. As to the kind of experiment: Cell proliferation assay Method A (ATPlite), Sk-Mel-28. Type of series: cell-based. The settings on record: Homo sapiens, 72 hours, read-out: antiproliferative activity IC50, Sk-Mel-28. The method, then:
as §1

For the next series, the system named is H1993 cells. Description: Cell proliferation assay Method A (ATPlite), H1993. Type of series: cell-based. The settings on record: Homo sapiens, NCI-H1993, 72 hours, read-out: antiproliferative activity IC50, H1993. The procedure: as §1
The test system of another series is BT474 cells. As to the kind of experiment: Cell proliferation assay Method B, BT474. Type of series: cell-based. The settings on record: Homo sapiens, BT-474; Breast; Method B; 72 hours; read-out: antiproliferative activity IC50, BT474. The method, then:
(§2) Cancer cell lines were plated at 5,000 to 10,000 per well in 96-well flat bottomed plates with various concentration of compounds. The cells were incubated with compounds for 72 hours in the presence of 0.5% of fetal bovine serum. Growth inhibition was accessed by adenosine triphosphate (ATP) content assay using Promega CellTiter-Glo kit. Promega CellTiter-Glo kit is an ATP monitoring system based on firefly luciferase. Briefly, 16 μl of mammalian cell lysis and substrate solution was added to 84 μl of culture medium per well to lyse the cells and stabilize the ATP. The mixture was shaken and incubated for 30 minutes and subsequently the luminescence was measured.

The subject of series [3] is Sk-Mel-28 cells. As to the kind of experiment: Cell proliferation assay Method B, Sk-Mel-28. Type of series: cell-based. The settings on record: Homo sapiens, SK-MEL-28; Melanoma; Method B; 72 hours; read-out: antiproliferative activity IC50, Sk-Mel-28. The method, then:
as §2

In a further series the test system is RPMI-8226 cells. As to the kind of experiment: Cell proliferation assay Method B, RPMI-8226. The format is cell-based. The note with it: Homo sapiens, Multiple Myeloma, 72 hours, 0.5% fetal bovine serum, CellTiter-Glo, read-out: antiproliferative activity IC50, RPMI-8226. The method, then: as §2

With `CC(c1cc2nc(-c3cccc4[nH]ncc34)nc(N3CCOCC3)c2s1)N(C)c1ncc(C(=O)NO)cn1` (stereo not drawn) [Compound 70], the IC50 in [1] is < 100 nM; in the series with HCT-118 cells, < 100 nM; in the series on BT-474 cells it was < 100 nM; in the series with Sk-Mel-28 cells [2], < 100 nM; in the series on H1993 cells it was < 100 nM; in the series on BT474 cells, < 10 nM. In addition, the concentration for half-maximal inhibition (IC50) with Sk-Mel-28 cells [3] lay within 100 to 1000 nM.

Turning to `N#CCCN(Cc1cc2nc(-c3cccc4[nH]ncc34)nc(N3CCOCC3)c2s1)c1ncc(C(=O)NO)cn1` [Compound 99], the IC50 in series [1] is < 100 nM; with HCT-118 cells, > 10000 nM; in the series with BT-474 cells, 100 to 1000 nM; with Sk-Mel-28 cells [2], 100 to 1000 nM; in the series with H1993 cells it was > 10000 nM.

As for `CC(=O)OCCN(Cc1cc2nc(-c3cccc4[nH]ncc34)nc(N3CCOCC3)c2s1)c1ncc(C(=O)NO)cn1` [Compound 87], the 50% inhibitory concentration (IC50) was < 100 nM in series [1]; 100 to 1000 nM in the series with HCT-118 cells; 1000 to 10000 nM in the series on BT-474 cells; 100 to 1000 nM in the series with Sk-Mel-28 cells [2]; 1000 to 10000 nM in the series on H1993 cells.

`CCN(Cc1cc2nc(-c3cccc4[nH]ncc34)nc(N3CCOCC3)c2s1)c1ncc(C(=O)NO)cn1` [Compound 92]: the concentration for half-maximal inhibition (IC50) was < 100 nM in series [1], < 100 nM in the series on HCT-118 cells, < 100 nM in the series with BT-474 cells and 100 to 1000 nM in the series on Sk-Mel-28 cells [2].

The compound `O=C(NO)c1cnc(NCc2cc3nc(-c4cccc5[nH]ncc45)nc(N4CCOCC4)c3s2)nc1` [Compound 53, 2-((2-(1H-indazol-4-yl)-4-morpholinothieno[3,2-d]pyrimidin-6-yl)methylamino)-N-hydroxypyrimidine-5-carboxamide] showed a melting point of 234 to 237 °C. In addition, the IC50 in series [1] is < 100 nM. The IC50 in the series with HCT-118 cells is 100 to 1000 nM. For the same compound, in the series on BT-474 cells, the 50% inhibitory concentration (IC50) is < 100 nM. In the series with Sk-Mel-28 cells [2], the concentration for half-maximal inhibition (IC50) fell in the range of 100 to 1000 nM. Moreover, the half-maximal inhibitory concentration (IC50) with H1993 cells lay within 100 to 1000 nM.

`CN(Cc1cc2nc(-c3ccc(N)cc3Cl)nc(N3CCOCC3)c2s1)c1ncc(C(=O)NO)cn1` [Compound 284, 2-(((2-(4-Amino-2-chlorophenyl)-4-morpholinothieno[3,2-d]pyrimidin-6-yl)methyl)(methyl)amino)-N-hydroxypyrimidine-5-carboxamide] yielded a melting point of 179 to 183 °C. In addition, in series [1], the IC50 was < 100 nM. Further, the IC50 in the series on RPMI-8226 cells was < 10 nM.

In the case of `COCCN(Cc1cc2nc(-c3cccc4[nH]ncc34)nc(N3CCOCC3)c2s1)c1ncc(C(=O)NO)cn1` [Compound 90, 2-(((2-(1H-indazol-4-yl)-4-morpholinothieno[3,2-d]pyrimidin-6-yl)methyl)(2-methoxyethyl)amino)-N-hydroxypyrimidine-5-carboxamide], the concentration for half-maximal inhibition (IC50) in the series with HCT-118 cells was < 100 nM; in the series on BT-474 cells it was 100 to 1000 nM; with H1993 cells, 1000 to 10000 nM.

As for `C[C@H](O)c1cccc(-c2nc(N3CCOCC3)c3sc(CN(C)c4ncc(C(=O)NO)cn4)cc3n2)c1` [Compound 296, (S)—N-Hydroxy-2-(((2-(3-(1-hydroxyethyl)phenyl)-4-morpholinothieno[3,2-d]pyrimidin-6-yl)methyl)(methyl)amino)pyrimidine-5-carboxamide], the melting point lay in the range of 168 to 172 °C. In series [1], the IC50 is < 100 nM. Further, the IC50 in the series on RPMI-8226 cells was < 10 nM.

Consider `O=C(NO)c1ccc(NCc2cc3nc(-c4cccc5[nH]ncc45)nc(N4CCOCC4)c3s2)nc1` [Compound 76, 6-((2-(1H-indazol-4-yl)-4-morpholinothieno[3,2-d]pyrimidin-6-yl)methylamino)-N-hydroxynicotinamide], for which the melting point fell in the range of 218 to 220 °C. Further, in series [1], the IC50 is < 100 nM. In the series with HCT-118 cells, the IC50 lay within 100 to 1000 nM. In addition, the half-maximal inhibitory concentration (IC50) with BT-474 cells lay in the range of 100 to 1000 nM. For the same compound, the IC50 in the series with Sk-Mel-28 cells [2] lay within 100 to 1000 nM. Besides, the half-maximal inhibitory concentration (IC50) in the series with H1993 cells fell in the range of 100 to 1000 nM.

`CN(Cc1cc2nc(-c3cccnc3)nc(N3CCOCC3)c2s1)c1ncc(C(=O)NO)cn1` [Compound 109, N-hydroxy-2-(methyl((4-morpholino-2-(pyridin-3-yl)thieno[3,2-d]pyrimidin-6-yl)methyl)amino)pyrimidine-5-carboxamide] had a melting point of 160 to 164 °C. Moreover, the IC50 in series [1] was < 100 nM. Also, the concentration for half-maximal inhibition (IC50) with HCT-118 cells was < 100 nM. The IC50 in the series with BT-474 cells was < 100 nM. For the same compound, the half-inhibitory concentration (IC50) in the series on H1993 cells is < 100 nM.

Compound `CN(C)c1ncc(-c2nc(N3CCOCC3)c3sc(CN(C)c4ncc(C(=O)NO)cn4)cc3n2)cn1` [Compound 117, 2-(((2-(2-(dimethylamino)pyrimidin-5-yl)-4-morpholinothieno[3,2-d]pyrimidin-6-yl)methyl)(methyl)amino)-N-hydroxypyrimidine-5-carboxamide] yielded a melting point of 200 to 206 °C. Also, in series [1], the IC50 is < 100 nM. For the same compound, the IC50 in the series with HCT-118 cells was < 100 nM. For the same compound, the half-maximal inhibitory concentration (IC50) in the series with BT-474 cells was < 100 nM. Moreover, in the series with Sk-Mel-28 cells [2], the IC50 was < 100 nM. Moreover, in the series with H1993 cells, the half-inhibitory concentration (IC50) was < 100 nM.

Regarding `CNc1ccc(-c2nc(N3CCOCC3)c3sc(C(=O)NCC4CCN(c5ncc(C(=O)NO)cn5)CC4)cc3n2)cn1` [Compound 308, N-((1-(5-(Hydroxycarbamoyl)pyrimidin-2-yl)piperidin-4-yl)methyl)-2-(6-(methylamino)pyridin-3-yl)-4-morpholinothieno[3,2-d]pyrimidine-6-carboxamide], the melting point lay within 215 to 218 °C. Moreover, in [1], the half-maximal inhibitory concentration (IC50) is < 100 nM. In addition, in the series with RPMI-8226 cells, the IC50 fell in the range of 100 to 1000 nM.

Turning to `CN(Cc1cc2nc(-c3cc(F)cc4[nH]ncc34)nc(N3CCOCC3)c2s1)c1ncc(C(=O)NO)cn1` [Compound 69, 2-(((2-(6-fluoro-1H-indazol-4-yl)-4-morpholinothieno[3,2-d]pyrimidin-6-yl)methyl)(methyl)amino)-N-hydroxypyrimidine-5-carboxamide], the melting point fell in the range of 215 to 217 °C. Besides, the IC50 in [1] was < 100 nM. Moreover, in the series with HCT-118 cells, the half-inhibitory concentration (IC50) is < 100 nM. Besides, the half-maximal inhibitory concentration (IC50) with BT-474 cells was < 100 nM. Besides, in the series on Sk-Mel-28 cells [2], the IC50 is < 100 nM. The IC50 with H1993 cells is < 100 nM.

As for `CN(Cc1cc2nc(-c3cccc4[nH]ncc34)nc(N3CCOCC3)c2s1)c1ncc(/C=C/C(=O)NO)cn1` [Compound 75], the IC50 (in series [1]; in the series with HCT-118 cells; with BT-474 cells; in the series with Sk-Mel-28 cells [2]; with H1993 cells) was 100 to 1000 nM in each case.

Regarding `O=C(NO)c1cnc(N(CCCO)Cc2cc3nc(-c4cccc5[nH]ncc45)nc(N4CCOCC4)c3s2)nc1` [Compound 91], the IC50 in series [1] was < 100 nM; in the series with HCT-118 cells, 1000 to 10000 nM; in the series with BT-474 cells, 1000 to 10000 nM; with H1993 cells, > 10000 nM.

Regarding `O=C(NO)c1cnc(N(CCO)Cc2cc3nc(-c4cccc5[nH]ncc45)nc(N4CCOCC4)c3s2)nc1` [Compound 86, 2-(((2-(1H-indazol-4-yl)-4-morpholinothieno[3,2-d]pyrimidin-6-yl)methyl)(2-hydroxyethyl)amino)-N-hydroxypyrimidine-5-carboxamide], the melting point was in the range of 190 to 194 °C. Further, the IC50 in [1] was < 100 nM. The IC50 in the series on HCT-118 cells lay within 100 to 1000 nM. Also, in the series with BT-474 cells, the half-inhibitory concentration (IC50) was 100 to 1000 nM. The IC50 with Sk-Mel-28 cells [2] was in the range of 1000 to 10000 nM.

As for `Nc1ncc(-c2nc(N3CCOCC3)c3sc(NCCCC(=O)NO)cc3n2)cn1` [Compound 225, 4-(2-(2-aminopyrimidin-5-yl)-4-morpholinothieno[3,2-d]pyrimidin-6-ylamino)-N-hydroxybutanamide], the melting point lay within 220 to 230 °C. The same compound gave an IC50 in series [1] of 1000 to 10000 nM.

Compound `CN(Cc1cc2nc(-c3ccc(N)c(O)c3)nc(N3CCOCC3)c2s1)c1ncc(C(=O)NO)cn1` [Compound 279, 2-(((2-(4-Amino-3-hydroxyphenyl)-4-morpholinothieno[3,2-d]pyrimidin-6-yl)methyl)(methyl)amino)-N-hydroxypyrimidine-5-carboxamide] displayed a melting point of 214 to 218 °C. Besides, in series [1], the IC50 is < 100 nM.

In turn, `Nc1ncc(-c2nc(N3CCOCC3)c3sc(NCCCCC(=O)NO)cc3n2)cn1` [Compound 226] registered a melting point of 175 to 180 °C. Further, the half-maximal inhibitory concentration (IC50) in [1] was < 100 nM.

As for `CN(Cc1cc2nc(-c3ccc(S(C)(=O)=O)cc3)nc(N3CCOCC3)c2s1)c1ncc(C(=O)NO)cn1` [Compound 149, N-hydroxy-2-(methyl((2-(4-(methylsulfonyl)phenyl)-4-morpholinothieno[3,2-d]pyrimidin-6-yl)methyl)amino)pyrimidine-5-carboxamide], the melting point is 206 to 208 °C. The IC50 in [1] is < 100 nM.
